Results: patent US9808003B2, “Herbicidally active 2-(substituted-phenyl)-cyclopentane-1,3-dione compounds and derivatives thereof” (Syngenta Limited, priority 2013, dated 2017)
Values joined by “and” are separate entries in the source; they are usually repeats but may differ in a detail not shown here. Equal values may be shown once.

Key:
Type in all cases: in vivo
Spring Wheat “Teal” = assay: Test 1B glasshouse assay, post-emergence herbicidal activity against cereal crops; details: 14 DAA
Summary of the method: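 Technical compound in IF50 with acetone, diluted into 0.5% v/v Adigor, sprayed post-emergence on 14-day glasshouse plants (22/16 °C, 16 h light, 65% humidity), typically at 60, 90 or 120 g/ha, with or without 50 g/ha cloquintocet-mexyl safener. Phytotoxicity scored visually 14 DAA (0–100%), mean of two replicates.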

Poa annua (POAAN) = assay: Test 1B glasshouse assay, post-emergence herbicidal activity against grassy weeds; details: 14 DAA
Summary of the method: (§1)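 Post-emergence spray, 14-day-old plants, glasshouse 22/16 °C day/night, 16 h light, 65% humidity. Test herbicide typically 60, 90 or 120 g/ha; cloquintocet-mexyl safener 50 g/ha optional at 60, included at 90/120. Scored visually 14 DAA, 0–100% damage, 2 reps averaged.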

Setaria viridis (SETVI) = assay: as above; details: 14 DAA
Summary of the method: as §1

Avena fatua (AVEFA) = assay: as above; details: 14 DAA
Summary of the method: as §1

[1] = test system: Lolium multiflorum (LOLMU); assay: as above; details: 14 DAA
Summary of the method: as §1

[2] = test system: Alopecurus myosuroides (ALOMY); assay: as above; details: 14 DAA
Summary of the method: as §1

Spring Wheat “Freya” = assay: Test 1B glasshouse assay, post-emergence herbicidal activity against cereal crops
[3] = 30 g/ha herbicide, 50 g/ha cloquintocet-mexyl
[4] = 45 g/ha herbicide, 50 g/ha cloquintocet-mexyl
[5] = 60 g/ha herbicide, 0 g/ha cloquintocet-mexyl
[6] = 60 g/ha herbicide, 50 g/ha cloquintocet-mexyl
[7] = herbicide 30 g/ha, cloquintocet-mexyl 50 g/ha
[8] = herbicide 60 g/ha, cloquintocet-mexyl 0 g/ha
[9] = herbicide 60 g/ha, cloquintocet-mexyl 50 g/ha

| Compound | Post-emergence herbicidal activity, percentage phytotoxicity, POAAN (Poa annua (POAAN); [3]) [%] | Post-emergence herbicidal activity, percentage phytotoxicity, POAAN (Poa annua (POAAN); [4]) [%] | Post-emergence herbicidal activity, percentage phytotoxicity, POAAN (Poa annua (POAAN); [5]) | Post-emergence herbicidal activity, percentage phytotoxicity, SETVI (Setaria viridis (SETVI); [3]) | Post-emergence herbicidal activity, percentage phytotoxicity, SETVI (Setaria viridis (SETVI); [4]) [%] | Post-emergence herbicidal activity, percentage phytotoxicity, SETVI (Setaria viridis (SETVI); [5]) | Post-emergence herbicidal activity, percentage phytotoxicity, SETVI (Setaria viridis (SETVI); [6]) [%] | Post-emergence herbicidal activity, percentage phytotoxicity, AVEFA (Avena fatua (AVEFA); [3]) | Post-emergence herbicidal activity, percentage phytotoxicity, AVEFA (Avena fatua (AVEFA); [4]) [%] | Post-emergence herbicidal activity, percentage phytotoxicity, AVEFA (Avena fatua (AVEFA); [5]) | Post-emergence herbicidal activity, percentage phytotoxicity, AVEFA (Avena fatua (AVEFA); [6]) | Post-emergence herbicidal activity, percentage phytotoxicity, LOLMU [1, 3] | Post-emergence herbicidal activity, percentage phytotoxicity, LOLMU [1, 4] [%] | Post-emergence herbicidal activity, percentage phytotoxicity, LOLMU [1, 5] [%] | Post-emergence herbicidal activity, percentage phytotoxicity, LOLMU [1, 6] | Post-emergence herbicidal activity, percentage phytotoxicity, ALOMY [2, 3] | Post-emergence herbicidal activity, percentage phytotoxicity, ALOMY [2, 4] [%] | Post-emergence herbicidal activity, percentage phytotoxicity, ALOMY [2, 5] | Post-emergence herbicidal activity, percentage phytotoxicity, ALOMY [2, 6] [%] | Percentage Phytotoxicity Spring Wheat “Freya” (Spring Wheat “Freya”; [7]) [%] | other results |
| --- | --- | --- | --- | --- | --- | --- | --- | --- | --- | --- | --- | --- | --- | --- | --- | --- | --- | --- | --- | --- | --- |
| Cc1cc(C)c(C2C(=O)CC(CCNC(=O)c3cccc(F)n3)C2=O)c(C)c1 (racemic) [Compound A89] | 0 | 3 | 25% and 15% | 100% and 95% | 100 | 100% and 99% | 100 | 83% and 85% | 85 | 90% and 97% | 90% and 93% | 90% and 93% | 99 | 100 | 100% and 95% | 88% and 80% | 97 | 98% and 99% | 98 | 13 | Post-emergence herbicidal activity against cereal crops, percentage phytotoxicity, Spring Wheat “Teal” (Spring Wheat “Teal”; [3]): 13%; Post-emergence herbicidal activity against cereal crops, percentage phytotoxicity, Spring Wheat “Teal” (Spring Wheat “Teal”; [4]): 20%; Post-emergence herbicidal activity against cereal crops, percentage phytotoxicity, Spring Wheat “Teal” (Spring Wheat “Teal”; [5]): 75%; Post-emergence herbicidal activity against cereal crops, percentage phytotoxicity, Spring Wheat “Teal” (Spring Wheat “Teal”; [6]): 50%; Percentage Phytotoxicity Spring Wheat “Freya” (Spring Wheat “Freya”; [8]): 70%; Percentage Phytotoxicity Spring Wheat “Freya” (Spring Wheat “Freya”; [9]): 38% |
| Cc1cc(C)c(C2C(=O)CC(CCNC(=O)c3ccc(Br)cn3)C2=O)c(C)c1 (racemic) [Compound A120, 5-bromo-N-{2-[2,4-dioxo-3-(2,4,6-trimethylphenyl)cyclopentyl]ethyl}pyridine-2-carboxamide] | 3 | 3 | 10% | 100% | 100 | 100% | 100 | 75% | 78 | 85% | 78% | 98% | 99 | 100 | 99% | 75% | 80 | 85% | 80 | 18 | Post-emergence herbicidal activity, percentage phytotoxicity, POAAN (Poa annua (POAAN); [6]): 3%; Percentage Phytotoxicity Spring Wheat “Freya” (Spring Wheat “Freya”; herbicide 45 g/ha, cloquintocet-mexyl 50 g/ha): 30%; Percentage Phytotoxicity Spring Wheat “Freya” (Spring Wheat “Freya”; [8]): 55%; Percentage Phytotoxicity Spring Wheat “Freya” (Spring Wheat “Freya”; [9]): 30% |
